In PubChem BioAssay AID330 (DTP/NCI, 2004):
“And” between values parts separate entries of the source, which are not always exact repeats. Equal values may be shown once. Toxic doses and inconclusive results are not listed.

Tested on: P388 leukemia ip, CD2F1 mice, survival T/C
Test: NCI In Vivo Anticancer Drug Screen. Data for tumor model P388 Leukemia (intraperitoneal) in CD2F1 (CDF1) mice
Settings: endpoint: median survival time, higher = longer survival
Procedure, shortened: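 Mice carrying the transplanted tumor received test compound or vehicle. Survival was recorded in each group, and the value is the treated-group measurement divided by that of the vehicle-treated control group.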

[1] = dose: 60.0 mg/kg/injection, schedule: Q01DX005 (ip), vehicle: saline with Tween-80
[2] = dose: 120.0 mg/kg/injection, schedule: Q01DX005 (ip), vehicle: saline with Tween-80
[3] = dose: 240.0 mg/kg/injection, schedule: Q01DX005 (ip), vehicle: saline with Tween-80
[4] = dose: 25.0 mg/kg/injection, schedule: Q01DX009 (ip), vehicle: Klucel (hydroxypropylcellulose) (HPC)
[5] = dose: 50.0 mg/kg/injection, schedule: Q01DX009 (ip), vehicle: Klucel (hydroxypropylcellulose) (HPC)
[6] = dose: 100.0 mg/kg/injection, schedule: Q01DX009 (ip), vehicle: Klucel (hydroxypropylcellulose) (HPC)
[7] = dose: 50.0 mg/kg/injection, schedule: Q01DX005 (ip), vehicle: Klucel (hydroxypropylcellulose) (HPC)
[8] = dose: 50.0 mg/kg/injection, schedule: Q01DX005 (ip), vehicle: saline
[9] = dose: 100.0 mg/kg/injection, schedule: Q01DX005 (ip), vehicle: saline
[10] = dose: 200.0 mg/kg/injection, schedule: Q01DX005 (ip), vehicle: saline
[11] = dose: 50.0 mg/kg/injection, schedule: Q01DX009 (ip), vehicle: saline with Tween-80
[12] = dose: 100.0 mg/kg/injection, schedule: Q01DX009 (ip), vehicle: saline with Tween-80
[13] = dose: 100.0 mg/kg/injection, schedule: Q01DX001 (ip), vehicle: saline with Tween-80
[14] = dose: 200.0 mg/kg/injection, schedule: Q01DX001 (ip), vehicle: saline with Tween-80
[15] = dose: 12.5 mg/kg/injection, schedule: Q01DX009 (ip), vehicle: saline with Tween-80

## CC1CCCC(C)N1C(=O)c1ccccc1 (stereo unspecified)
[1]
  T/C: 98 % of control
[2]
  T/C: 97 % of control
[3]
  T/C: 96 % of control

## C=CCn1c(=O)c2[nH]c(Cl)nc2n(CC=C)c1=O
[4]
  T/C: 105 % of control
[5]
  T/C: 100 % of control
[6]
  T/C: 108 % of control

## C/C1=C2N=C(/C=C3N=C(/C(C)=C4\[N-]C(C(CC(N)=O)C4(C)CCC(=O)NCC(C)OP(=O)(O)OC4C(CO)OC(n5cnc6cc(C)c(C)cc65)C4O)C4(C)N=C1C(CCC(N)=O)C4(C)CC(N)=O)C(CCC(N)=O)C\3(C)C)C(CCC(N)=O)C/2(C)CC(N)=O.[CH2-]C1OC(n2cnc3c(N)ncnc32)C(O)C1O.[Co+2] (stereo unspecified)
dose: 8.8 micrograms/kg/injection, schedule: Q#A X Z (ip), vehicle: water
  T/C: 90 % of control
dose: 88.3 micrograms/kg/injection, schedule: Q#A X Z (ip), vehicle: water
  T/C: 97 % of control
dose: 8830.0 micrograms/kg/injection, schedule: Q#A X Z (ip), vehicle: water
  T/C: 89 % of control

## Cc1c(N=Nc2ccc(Br)cc2)c(-c2ccccc2)nn1C(=S)S
[7]
  T/C: 105 % of control
dose: 100.0 mg/kg/injection, schedule: Q01DX005 (ip), vehicle: Klucel (hydroxypropylcellulose) (HPC)
  T/C: 105 % of control
dose: 200.0 mg/kg/injection, schedule: Q01DX005 (ip), vehicle: Klucel (hydroxypropylcellulose) (HPC)
  T/C: 90 % of control

## CC(=O)SC1(C(C(N)=S)c2ccccc2)CCN(C)CC1 (stereo unspecified)
[8]
  T/C: 105 % of control
[9]
  T/C: 111 % of control
[10]
  T/C: 101 % of control

## CC(C)OC(=S)SCC(=O)c1ccc(C(F)(F)F)cc1
[11]
  T/C: 105 % of control
[12]
  T/C: 104 % of control
dose: 200.0 mg/kg/injection, schedule: Q01DX009 (ip), vehicle: saline with Tween-80
  T/C: 98 % of control
dose: 400.0 mg/kg/injection, schedule: Q01DX009 (ip), vehicle: saline with Tween-80
  T/C: 100 % of control

## NNc1nccnc1Cl
dose: 50.0 mg/kg/injection, schedule: Q01DX001 (ip), vehicle: saline with Tween-80
  T/C: 102 % of control
[13]
  T/C: 97 % of control
[14]
  T/C: 108 % of control

## COc1ccc(Cc2cc(N=NC(N)=O)c(C)cc2O)cc1
dose: 12.5 mg/kg/injection, schedule: Q01DX005 (ip), vehicle: Klucel (hydroxypropylcellulose) (HPC)
  T/C: 106 % of control
dose: 25.0 mg/kg/injection, schedule: Q01DX005 (ip), vehicle: Klucel (hydroxypropylcellulose) (HPC)
  T/C: 94 % of control
[7]
  T/C: 97 % of control

## CSc1nc(N)c(NS(=O)(=O)c2cccc(N)c2)c(=O)[nH]1
[1]
  T/C: 100 % of control
[2]
  T/C: 99 % of control
[3]
  T/C: 99 % of control

## C=C1C(=O)OC2/C=C(\C)CC/C=C(/C=O)C(OC)C(OC(=O)C(C)C)C12 (stereo unspecified)
dose: 6.25 mg/kg/injection, schedule: Q01DX009 (ip), vehicle: Klucel (hydroxypropylcellulose) (HPC)
  T/C: 106 % of control
dose: 12.5 mg/kg/injection, schedule: Q01DX009 (ip), vehicle: Klucel (hydroxypropylcellulose) (HPC)
  T/C: 97 % of control
[4]
  T/C: 100 % of control

## CC1CCOn2c1nc1ccccc1c2=O (stereo unspecified)
[5]
  T/C: 97 % of control
[6]
  T/C: 102 % of control
dose: 200.0 mg/kg/injection, schedule: Q01DX009 (ip), vehicle: Klucel (hydroxypropylcellulose) (HPC)
  T/C: 113 % of control

## CCOC(=O)NCCCCC(N)C(=O)O (stereo unspecified)
dose: 50.0 mg/kg/injection, schedule: Q01DX009 (ip), vehicle: saline
  T/C: 97 % of control
dose: 100.0 mg/kg/injection, schedule: Q01DX009 (ip), vehicle: saline
  T/C: 102 % of control
dose: 200.0 mg/kg/injection, schedule: Q01DX009 (ip), vehicle: saline
  T/C: 102 % of control

## C1CNP2(=NP(N3CC3)(N3CC3)=NP(N3CC3)(N3CC3)=N2)N1
dose: 12.5 mg/kg/injection, schedule: Q01DX001 (ip), vehicle: saline with Tween-80
  T/C: 108 % of control
dose: 25.0 mg/kg/injection, schedule: Q01DX001 (ip), vehicle: saline with Tween-80
  T/C: 108 % of control
[13]
  T/C: 156 % of control

## N#CC(C=C(c1ccccc1)c1ccccc1)c1ccccc1 (stereo unspecified)
dose: 100.0 mg/kg/injection, schedule: Q04DX003 (ip), vehicle: saline
  T/C: 98 % of control
dose: 200.0 mg/kg/injection, schedule: Q04DX003 (ip), vehicle: saline
  T/C: 98 % of control
dose: 400.0 mg/kg/injection, schedule: Q04DX003 (ip), vehicle: saline
  T/C: 96 % of control

## COC(CNC(c1ccccc1)C(O)c1ccccc1)(OC)OC (stereo unspecified)
[13]
  T/C: 97 % of control
[14]
  T/C: 97 % of control
dose: 400.0 mg/kg/injection, schedule: Q01DX001 (ip), vehicle: saline with Tween-80
  T/C: 97 % of control

## CCN(Cc1cccc(S(=O)(=O)O)c1)c1ccc(C(=C2C=CC(=[N+](CC)Cc3cccc(S(=O)(=O)O)c3)C=C2)c2ccccc2)cc1
[8]
  T/C: 107 % of control
[9]
  T/C: 110 % of control
[10]
  T/C: 115 % of control

## O=S(=O)(F)c1ncc2[nH]cnc2n1
dose: 12.5 mg/kg/injection, schedule: Q01DX005 (ip), vehicle: saline with Tween-80
  T/C: 109 % of control
dose: 25.0 mg/kg/injection, schedule: Q01DX005 (ip), vehicle: saline with Tween-80
  T/C: 114 % of control
dose: 50.0 mg/kg/injection, schedule: Q01DX005 (ip), vehicle: saline with Tween-80
  T/C: 106 % of control and 111 % of control
dose: 100.0 mg/kg/injection, schedule: Q01DX005 (ip), vehicle: saline with Tween-80
  T/C: 108 % of control

## O=C1OCCC1C(=O)c1ccccc1 (stereo unspecified)
dose: 50.0 mg/kg/injection, schedule: Q01DX001 (ip), vehicle: saline
  T/C: 112 % of control
dose: 100.0 mg/kg/injection, schedule: Q01DX001 (ip), vehicle: saline
  T/C: 112 % of control
dose: 200.0 mg/kg/injection, schedule: Q01DX001 (ip), vehicle: saline
  T/C: 97 % of control

## Cc1ccc(C(=O)CCN(C)C)c(C)c1
dose: 15.0 mg/kg/injection, schedule: Q01DX005 (ip), vehicle: saline
  T/C: 106 % of control
dose: 30.0 mg/kg/injection, schedule: Q01DX005 (ip), vehicle: saline
  T/C: 100 % of control
dose: 60.0 mg/kg/injection, schedule: Q01DX005 (ip), vehicle: saline
  T/C: 89 % of control and 97 % of control

## CC1CN(Cc2ccccc2)CCC1N1CCCCC1 (stereo unspecified)
[8]
  T/C: 99 % of control
[9]
  T/C: 100 % of control

## C[n+]1c(-c2cc(C(F)(F)F)cc(C(F)(F)F)c2)c2cc(N)ccc2c2ccc(N)cc21
dose: 2.5 mg/kg/injection, schedule: Q01DX009 (ip), vehicle: water
  T/C: 110 % of control
dose: 5.0 mg/kg/injection, schedule: Q01DX009 (ip), vehicle: water
  T/C: 115 % of control
dose: 10.0 mg/kg/injection, schedule: Q01DX009 (ip), vehicle: water
  T/C: 118 % of control
[15]
  T/C: 158 % of control
dose: 20.0 mg/kg/injection, schedule: Q01DX009 (ip), vehicle: water
  T/C: 152 % of control
dose: 25.0 mg/kg/injection, schedule: Q01DX009 (ip), vehicle: saline with Tween-80
  T/C: 166 % of control
[11]
  T/C: 196 % of control
dose: 80.0 mg/kg/injection, schedule: Q01DX009 (ip), vehicle: water
  T/C: 111 % of control

## CCCCCCCCCCC(O)C(=O)O (stereo unspecified)
[11]
  T/C: 95 % of control
[12]
  T/C: 89 % of control

## O=C(O)CNC(=O)C(=O)c1c[nH]c2ccc([N+](=O)[O-])cc12
[1]
  T/C: 97 % of control
[2]
  T/C: 97 % of control
[3]
  T/C: 94 % of control

## O=C(Nc1ccc(Cl)c(Cl)c1)Nc1ccc(Cl)c(Cl)c1 (tested in a mixture with another compound)
dose: 3.13 mg/kg/injection, schedule: Q01DX009 (ip), vehicle: saline with Tween-80
  T/C: 97 % of control
dose: 6.25 mg/kg/injection, schedule: Q01DX009 (ip), vehicle: saline with Tween-80
  T/C: 88 % of control
[15]
  T/C: 94 % of control

## CCC(C)/[N+]([O-])=N\O (stereo unspecified)
dose: 3.0 mg/kg/injection, schedule: Q01DX005 (ip), vehicle: Klucel (hydroxypropylcellulose) (HPC)
  T/C: 98 % of control
dose: 6.0 mg/kg/injection, schedule: Q01DX005 (ip), vehicle: Klucel (hydroxypropylcellulose) (HPC)
  T/C: 91 % of control
dose: 12.0 mg/kg/injection, schedule: Q01DX005 (ip), vehicle: Klucel (hydroxypropylcellulose) (HPC)
  T/C: 100 % of control
dose: 24.0 mg/kg/injection, schedule: Q01DX005 (ip), vehicle: Klucel (hydroxypropylcellulose) (HPC)
  T/C: 97 % of control
